Values of other authors in patent publication US6358541B1, “Topical preparation for the treatment of hair loss” (priority 2000, dated 2002).

Columns and labels:
[1] = vapor; OSHA list 1990
[2] = 0.1 wt. % adapalene gel, versus petroleum jelly control
comedones = conditions: topical
[3] = topical

## [O][Cl+][O-] [chlorine dioxide]
[1]
  Permissible Exposure Level (PEL): 0.1 ppm

## COc1ccc(-c2ccc3cc(C(=O)O)ccc3c2)cc1C12CC3CC(CC(C3)C1)C2 [adapalene, Adapalene]
[2]
  irritative potential: low irritative potential only slightly greater than a petroleum jelly control
comedones
  comedolytic activity: significant comedolytic activity

## CC1=C(/C=C/C(C)=C/C=C/C(C)=C/C=O)C(C)(C)CCC1 [retinaldehyde, Retinaldehyde]
[3]
  irritation relative to tretinoin (retinoic acid): significantly less irritating than retinoic acid

## O=C(O)CCCCCCCC(=O)O [Azeleic acid, 1,7 heptanedicarboxylic acid]
[3]
  irritation relative to tretinoin (retinoic acid): less irritation than tretinoin
